Read-outs that look alike come from different tables or passages of the source.
What was measured:
SK-Mel-28 melanoma cells = test: Anti-proliferative assay, cell-titre luminescent reagent, 72 h (GVK-BIO); assay type: cell-based; conditions: Homo sapiens
Outline: (§1)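 Luminescent cell-titre viability was read 30 min after reagent addition, following 72 h compound exposure of cells pre-cultured 24 h at 37 °C, 5% CO2. Dose sets were 30–0.03 μM (4 points) or 30–0.1 μM (6 points), giving IC50 by linear regression or EC50 by nonlinear variable-slope fit vs vehicle.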

[1] = test system: PC3 prostate cancer cells; test: as above; assay type: cell-based
Outline: as §1

[2] = test system: CaCo2 colorectal cancer cells; test: as above; assay type: cell-based; conditions: Homo sapiens
Outline: as §1

[3] = test system: SK-N-SH neuroblastoma cells; test: as above; assay type: cell-based; conditions: Homo sapiens
Outline: as §1

[4] = test system: DU145 prostate cancer cells; test: as above; assay type: cell-based; conditions: Homo sapiens
Outline: as §1

[5] = test system: MDA-MB-231 triple negative breast cancer cells; test: as above; assay type: cell-based; conditions: Homo sapiens
Outline: as §1

[6] = test system: A549 non-small cell lung carcinoma cells; test: as above; assay type: cell-based; conditions: Homo sapiens, read-out: IC50/μM Lung (NSLC) A549
Outline: as §1

[7] = test system: neuroblastoma (SH-EP) cells; test: Cell viability assay (MTT, 48 hr); assay type: cell-based; conditions: 48 hr treatment, read-out: IC50 (μM) SHEP
Protocol: (§2) Cell viability assays were also conducted to assess the anti-proliferative effects of the anti-tropomyosin compounds 4001-4015. Briefly, cells (1×10^3/well) were plated (96-well) and treated (48 hr) with anti-tropomyosin drug and viability measured using 3-(4,5-dimethylthiazol-2-yl)-2,5-diphenylterazolium bromide MTT. Cell viability was normalized to control (vehicle alone) and dose-response curves, and half maximal effective concentration (EC50) values were determined using Graph Pad Prism 5 (nonlinear regression sigmoidal dose-response variable slope).

[8] = test system: melanoma (SK-Mel-28) cells; test: Cell viability assay (MTT, 48 hr); assay type: cell-based; conditions: Homo sapiens, 48 hr treatment, read-out: IC50 (μM) SKMEL28
Protocol: as §2

[9] = test system: Tm5NM1-containing actin filaments in SK-N-SH neuroblastoma cells; test: Microfilament disruption assay, γ9d staining imaging and filament quantitation; assay type: cell-based; conditions: 0-40 μM, 24 h, FIG. 3
Protocol: (§3) FIG. 3: Imaging and quantitation of actin filaments in SK—N—SH neuroblastoma cells treated with compound (A) 4093 and (B) 4113. Cells were stained with γ9d (sheep polycolonal, 1:100) followed by 488-conjugated secondary (1:1000) and DAPI to visualize the Tm5NM1 containing filament bundles and the nucleus, respectively. Shown in the top panel is a representative grey scale immunofluorescent image from control (vehicle alone), 5 μM and 10 μM treated cells. […] The coloured lines indicate the detected actin filaments. Also shown is the quantitation of cell number, filament number/cell and filament number/cell area ([…]). […]
(§4) The ability of compounds 4093 and 4113 to disrupt the total actin cytoskeleton (FIG. 2) and to specifically target Tm5NM1-containing actin filaments (FIG. 3) was assessed in vitro using the microfilament disruption assay.
(§5) Briefly, SK-N-SH neuroblastoma cells were seeded at 1800 cells/well in a 384 Perkin Elmer High Content Imaging “View” plate and left to plate down 24 h prior to treatment. […] Images were then exported and changes in the organization and numbers of actin filaments within the cell were quantitated using a linear feature detection algorithm developed by the CSIRO. […] It is these “ridge lines” that correspond to actin filament bundles and allow us to quantitate the number of filaments per cell.

[10] = test system: total actin cytoskeleton in SK-N-SH neuroblastoma cells; test: Microfilament disruption assay, 488-Atto-Phallodin imaging and filament quantitation; assay type: cell-based; conditions: 0-40 μM, 24 h, FIG. 2
Protocol: as §3, with “2:” for “3:”, “488-Atto-Phallodin” for “γ9d (sheep polycolonal, 1:100) followed by 488-conjugated secondary (1:1000)”, “actin” for “Tm5NM1 containing”
as §4, §5

[11] = test system: non-transfected and Tm5NM1 stably transfected MEFs; test: MTT viability in non-transfected versus Tm5NM1 stably transfected MEFs; assay type: cell-based, mouse; conditions: 48 hr, FIG. 1
Protocol: FIG. 1: Activity of selected compounds against Tm5NM1/2 transfected mouse embryonic fibroblasts versus non-transfected MEFs.
Compounds 4001, 4010, 4014, 4008 and 4015 were then screened against non-transfected and Tm5NM1 stably transfected MEFs. Briefly, MEFs were transfected with pEYFP-C1/Tm5NM1 constructs using the Amaxa nucleofector apparatus (program A-023) and MEF nucleofector kit 1 (Lonza) according to the manufacturer's instructions. Cell viability assays were also conducted to assess the anti-proliferative effects of the anti-tropomyosin compounds. Briefly, cells (1×10^3/well) were plated (96-well) and treated (48 hr) with anti-tropomyosin compounds and viability measured using 3-(4,5-dimethylthiazol-2-yl)-2, 5-diphenylterazolium bromide MTT. Cell viability was normalized to control (vehicle alone) and dose-response curves, and half maximal effective concentration (EC50) values were determined using Graph Pad Prism 5 (nonlinear regression sigmoidal dose-response variable slope).

[12] = SK-MEL-28, 72 h, 30, 10, 3, 1, 0.3 and 0.1 μM, nonlinear regression (Table 5)
[13] = 30, 10, 3, 1, 0.3 and 0.1 μM, nonlinear regression (Table 5)
[14] = Caco-2, 72 h, 30, 10, 3, 1, 0.3 and 0.1 μM, nonlinear regression (Table 5)
[15] = SK-N-SH, 30, 10, 3, 1, 0.3 and 0.1 μM, nonlinear regression (Table 5)
[16] = DU-145, 72 h, 30, 10, 3, 1, 0.3 and 0.1 μM, nonlinear regression (Table 5)
[17] = MDA-MB-231, 72 h, 30, 10, 3, 1, 0.3 and 0.1 μM, nonlinear regression (Table 5)
[18] = A549, 72 h, 30, 10, 3, 1, 0.3 and 0.1 μM, nonlinear regression (Table 5)
[19] = SK-MEL-28, 72 h, 30, 3, 0.3 and 0.03 μM, linear regression (Tables 2-4)
[20] = 30, 3, 0.3 and 0.03 μM, linear regression (Tables 2-4)
[21] = Caco-2, 72 h, 30, 3, 0.3 and 0.03 μM, linear regression (Tables 2-4)
[22] = SK-N-SH, 30, 3, 0.3 and 0.03 μM, linear regression (Tables 2-4)
[23] = DU-145, 72 h, 30, 3, 0.3 and 0.03 μM, linear regression (Tables 2-4)
[24] = MDA-MB-231, 72 h, 30, 3, 0.3 and 0.03 μM, linear regression (Tables 2-4)
[25] = A549, 72 h, 30, 3, 0.3 and 0.03 μM, linear regression (Tables 2-4)

IC50 (SK-Mel-28 melanoma cells; [12])	IC50 [1, 13]	IC50 [2, 14]	IC50 [3, 15]	IC50 [4, 16]	IC50 [5, 17]	IC50 [6, 18]	IC50 [7]	IC50 [8]	IC50 (SK-Mel-28 melanoma cells; [19])	IC50 [1, 20]	IC50 [2, 21]	IC50 [3, 22]	IC50 [4, 23]	IC50 [5, 24]	IC50 [6, 25]	Structure (SMILES)	Disruption of Tm5NM1-containing actin filaments [9]	Disruption of the total actin cytoskeleton [10]	Selectivity: toxicity against primary MEFs versus MEFs stably transfected with Tm5NM1/2 [11]
9.3 µM	12.4 µM	13.1 µM	3.2 µM	37.4 µM	15.7 µM	16.3 µM	9.24 µM	7.04 µM	–	–	–	–	–	–	–	CN(C)CCCn1ccc2cc(Oc3ccc(C(=O)Nc4ccccc4)cc3)ccc21 [Compound 4002, 4-((1-(3-(dimethylamino)propyl)-1H-indol-5-yl)oxy)-N-phenylbenzamide]	–	–	–
–	–	–	–	–	–	–	8.7 µM	9.7 µM	6.1 µM	4.3 µM	2.8 µM	2.5 µM	3.3 µM	2.5 µM	3 µM	Cc1c(C)n(CCCN(C)C)c2ccc(Nc3cccc(C(=O)Nc4ccccc4)c3)cc12 [Compound 4011, 3-((1-(3-(dimethylamino)propyl)-2,3-dimethyl-1H-indol-5-yl)amino)-N-phenylbenzamide]	–	–	–
0.9 µM	11.4 µM	4.6 µM	1.7 µM	5.4 µM	2.8 µM	5.2 µM	–	–	–	–	–	–	–	–	–	Cc1c(C)n(CCCN2CCN(C)CC2)c2ccc(CN3CCN(CCc4ccc5c(c4)OCO5)CC3)cc12 [Compound 4113, 5-((4-(2-(benzo[d][1,3]dioxol-5-yl)ethyl)piperazin-1-yl)methyl)-2,3-dimethyl-1-(3-(4-methylpiperazin-1-yl)propyl)-1H-indole]	disrupt both the total actin cytoskeleton and Tm5NM1-containing actin filaments in a dose-dependent manner	disrupt both the total actin cytoskeleton and Tm5NM1-containing actin filaments in a dose-dependent manner	–
–	–	–	–	–	–	–	4.3 µM	4 µM	3.2 µM	3.7 µM	3.9 µM	3 µM	3.6 µM	2.5 µM	2.9 µM	CN(C)CCCn1ccc2cc(Oc3cccc(C(=O)Nc4ccccc4)c3)ccc21 [Compound 4014, 3-((1-(3-(dimethylamino)propyl)-1H-indol-5-yl)oxy)-N-phenylbenzamide]	–	–	less toxicity noted against primary mouse embryonic fibroblasts (MEFs) compared with MEFs stably transfected with Tm5NM1/2
–	–	–	–	–	–	–	14.5 µM	15.8 µM	9.2 µM	> 30 µM	> 30 µM	4.2 µM	> 30 µM	3.7 µM	7.6 µM	CN(C)CCCn1ccc2cc(Nc3cccc(C(=O)Nc4ccccc4)c3)ccc21 [Compound 4013, 3-((1-(3-(dimethylamino)propyl)-1H-indol-5-yl)amino)-N-phenylbenzamide]	–	–	–
–	–	–	–	–	–	–	2.7 µM	3.4 µM	3.3 µM	4.3 µM	5.8 µM	9.3 µM	3.3 µM	3.9 µM	3.8 µM	CN(C)CCCn1ccc2cc(Cc3cccc(C(=O)Nc4ccccc4)c3)ccc21 [Compound 4008]	–	–	–
–	–	–	–	–	–	–	6.4 µM	3.4 µM	3.4 µM	4 µM	3.5 µM	3.6 µM	3.4 µM	2.6 µM	2.8 µM	Cc1c(C)n(CCCN(C)C)c2ccc(Nc3ccc(C(=O)Nc4ccccc4)cc3)cc12 [Compound 4010, 4-((1-(3-(dimethylamino)propyl)-2,3-dimethyl-1H-indol-5-yl)amino)-N-phenylbenzamide]	–	–	less toxicity noted against primary mouse embryonic fibroblasts (MEFs) compared with MEFs stably transfected with Tm5NM1/2
–	–	–	–	–	–	–	4.63 µM	4.3 µM	3.6 µM	2.8 µM	3 µM	4.1 µM	3.2 µM	3.1 µM	2.7 µM	CN(C)CCCn1ccc2cc(Cc3ccc(C(=O)Nc4ccccc4)cc3)ccc21 [Compound 4001, 4-((1-(3-(dimethylamino)propyl)-1H-indol-5-yl)methyl)-N-phenylbenzamide]	–	–	less toxicity noted against primary mouse embryonic fibroblasts (MEFs) compared with MEFs stably transfected with Tm5NM1/2

Reference: patent US20170166555A1, “FUNCTIONALISED AND SUBSTITUTED INDOLES AS ANTI-CANCER AGENTS” (Novogen Limited, priority 2013, published 2017)
